12 compounds from paper PMC11351458, “Bioaffinity Ultrafiltration Combined with HPLC-ESI-qTOF-MS/MS for Screening Potential Bioactive Components from the Stems of Dendrobium fimbriatum and In Silico Analysis” (Antioxidants, 2024) can be followed below.

Molecules are shown by their SMILES. Like-named read-outs stand apart in the source and are kept apart here. Marks after values point to notes of the source that are not given here. Bounds are passed on as bounds.

Assay [1] addresses T1, acetylcholinesterase (AChE) (Electrophorus electricus, UniProt O42275).
T1 construct: purchased Sigma-Aldrich (St. Louis, MO, USA)
The assay is described as follows: Bioaffinity ultrafiltration assay with acetylcholinesterase. The format is binding. The note with it: components of EtOAc extract; EF = (A1 − A2)/A0 × 100%. Here is the method: (§1) The bioaffinity ultrafiltration assay was conducted using a previously described procedure. […] The reaction was conducted at 37 °C for 30 min, then centrifuged using a 14,000× g ultracentrifuge filter at 30 °C for 15 min. The filtrate was removed and 200 μL of Tris-HCl buffer was added to the ultracentrifuge filter and centrifuged at 14,000× g for 15 min at 30 °C. The previous step was repeated 3 times and the filtrate was removed. Then, 200 μL of methanol was added to the ultracentrifuge filter and centrifuged at 14,000× g for 15 min at 30 °C. The previous step was repeated 3 times and the filtrate was collected. The filtrate was concentrated and then dissolved in 50 μL MeOH for HPLC analysis. In addition, the processing of iNOS-ligand complexes was conducted following previously reported methods, while inducible nitric oxide synthase bioaffinity ultrafiltration assays were performed, as detailed above.
(§2) The binding affinity of compounds and enzymes using enrichment factor (EF) was assessed, and was counted as follows: A1, A2, and A0 represent the peak areas of picked compounds acquired from the extracts incubated with activated, inactivated, and no acetylcholinesterase, respectively. EF (%) = (A1 − A2)/A0 × 100%

Assay [2] has as its target T2, inducible nitric oxide synthase (iNOS) (Mus musculus, UniProt P29477).
T2 construct: purchased Sigma-Aldrich (St. Louis, MO, USA)
In words: Bioaffinity ultrafiltration assay with inducible nitric oxide synthase. The format is binding. The note with it: components of EtOAc extract; EF = (A1 − A2)/A0 × 100%. Here is the method:
as §1, §2

Assay [3] can be described thus: DPPH radical scavenging activity. The following applies: 50% free radical scavenging; for EC50: isolated components, read-out: SC50 DPPH. Here is the method: The DPPH radical scavenging effect was measured based on the reported method. BHT was applied as a positive control. DPPH solution was prepared diluted by EtOH to reach the final concentration of 400 µM. Different concentrations (400, 200, 100, 50, and 25 µg/mL) of extracts or compounds (100 µL) were mixed with DPPH solution (100 µL) and incubated for 30 min at room temperature and in darkness, and the absorbance of the mixture was measured at 520 nm.
(In general: DPPH is a stable violet radical that fades when it is reduced.)

Assay [4] in a line: ABTS cation radical scavenging activity. The following applies: 50% free radical scavenging; for EC50: isolated components, read-out: SC50 ABTS. Here is the method:
The ABTS cation radical scavenging effect was measured, as previously described by. […] The working solution was diluted by EtOH to reach the absorbance of 0.70 ± 0.02 at 740 nm for further experiments. Different concentrations (400, 200, 100, 50, and 25 µg/mL) of extracts or compounds (10 µL) were mixed with the working solution (190 μL). The mixture was incubated at room temperature for 6 min, and the antioxidant activity of the mixture was determined by the decrease in absorbance measured at 740 nm.

Assay [5] is described as follows: Ferric reducing antioxidant power (FRAP). The following applies: mM Trolox equivalents per g. Here is the method: FRAP was measured by the method reported in the previous literature. The working solution was mixed with acetate buffer (pH 3.6), ferric chloride solution (20 mM), and TPTZ solution (10 mM TPTZ in 40 mM HCl) at a proportion of 10:1:1, respectively, and freshly prepared before being used. A total of 900 μL of the working solution was warmed to 37 °C and then mixed with 100 μL of the diluted sample, blank or standard, in a microcentrifuge tube. The tubes were vortexed in a dry bath at 37 °C for 40 min. The absorbance was measured at 593 nm. The standard curve was linear between 0 and 100 mM Trolox. Results were expressed as mM TE/g dry weight. Additional dilution was needed if the FRAP value measured was over the linear range of the standard curve.

Assay [6] in a line: Superoxide radical scavenging activity. The note with it: 50% free radical scavenging; for EC50: isolated components, read-out: SC50 Superoxide. Here is the method: A superoxide radical scavenging assay was performed based on previously reported methods. The superoxide radical was generated in 16 mM Tris-HCl buffer (pH 8.0) containing 50 μL of NBT (300 μM), 50 μL of PMS (120 μM), and 50 μL of different concentrations of the test sample. The reaction was initiated by adding 50 μL of NADH (468 μM) solution to the mixture. After incubating at room temperature for 5 min, the activity of samples was determined by the decrease in absorbance measured at 560 nm against the sample concentration.

For the next assay, the target named is α-glucosidase. The assay is described as follows: α-Glucosidase inhibitory activity assay. The format is biochemical. The note with it: isolated compounds. Here is the method:
To test the anti-α-glucosidase effect of each solvent extract and each component, a previously described method was used. […] The α-glucosidase solution was diluted to 1 U/mL with 0.1 M sodium phosphate buffer (pH 6.8). Various concentrations of extract or compound (100 µL) and α-glucosidase solution (20 µL) were mixed. Subsequently, 0.53 mM p-NPG (380 µL) was added and incubated at 37 °C for 40 min. The reaction was stopped by adding 500 μL of 0.1 M Na2CO3 solution, and the absorbance was detected at 405 nm.
α-glucosidase inhibition (%) was counted as follows (Asample and Acontrol represent the absorbance of the tested sample and control, respectively):α-glucosidase inhibition (%) = (Acontrol − Asample)/Acontrol × 100%

Assay [7] deals with T1, acetylcholinesterase (AChE). The assay is described as follows: biochemical. The following applies: read-out: IC50 AChE (converted). Here is the method: The acetylcholinesterase inhibitory assay was carried out applying a method described in reference. Briefly, 0.1 M sodium phosphate buffer (pH 8.0, 140 μL), DTNB (10 μL), sample (20 μL), and AChE solution (15 μL) were added to a 96-well microplate and incubated at room temperature for 10 min. Finally, the absorbance was detected with a spectrophotometer at 405 nm.
The acetylcholinesterase inhibitory effect was counted as follows (Asample and Acontrol represent the absorbance of the tested sample and control, respectively):Acetylcholinesterase inhibitory activity (%) = (Acontrol − Asample)/Acontrol × 100%

Assay [8] has as its system NO production in RAW 264.7 cells. The assay is described as follows: Nitric oxide (NO) inhibition assay. The format is cell-based, murine. The note with it: Mus musculus, RAW264.7, LPS-treated RAW 264.7 cells, read-out: NO Inhibition IC50. Here is the method:
In this experiment, the RAW 264.7 macrophage cell line was used. The cells were stored at −196 °C in liquid nitrogen. After thawing, the cells were cultured in DMEM at 37 °C and 5% CO2 supplemented with 10% FBS, […] L-glutamine, 1 mM sodium pyruvate, 100 μg/mL streptomycin, and 100 U/mL penicillin.
NO inhibition assay was slightly modified from the reported method. The day before the experiment, RAW 264.7 cells were seeded into 96-well plates with 2 × 10^4 cells per well. The cells were pretreated with the sample solution, and then incubated at 37 °C for 1 h. After incubation, the cells were treated with 100 ng/mL of LPS to induce an inflammatory response. After incubation at 37 °C for 20 h, 50 μL of the supernatant was transferred from each well to another 96-well plate and mixed with an equal volume of Griess reagent. Finally, the absorbance was acquired at 550 nm after 20 min of incubation.

T1 sequence (O42275 24-633): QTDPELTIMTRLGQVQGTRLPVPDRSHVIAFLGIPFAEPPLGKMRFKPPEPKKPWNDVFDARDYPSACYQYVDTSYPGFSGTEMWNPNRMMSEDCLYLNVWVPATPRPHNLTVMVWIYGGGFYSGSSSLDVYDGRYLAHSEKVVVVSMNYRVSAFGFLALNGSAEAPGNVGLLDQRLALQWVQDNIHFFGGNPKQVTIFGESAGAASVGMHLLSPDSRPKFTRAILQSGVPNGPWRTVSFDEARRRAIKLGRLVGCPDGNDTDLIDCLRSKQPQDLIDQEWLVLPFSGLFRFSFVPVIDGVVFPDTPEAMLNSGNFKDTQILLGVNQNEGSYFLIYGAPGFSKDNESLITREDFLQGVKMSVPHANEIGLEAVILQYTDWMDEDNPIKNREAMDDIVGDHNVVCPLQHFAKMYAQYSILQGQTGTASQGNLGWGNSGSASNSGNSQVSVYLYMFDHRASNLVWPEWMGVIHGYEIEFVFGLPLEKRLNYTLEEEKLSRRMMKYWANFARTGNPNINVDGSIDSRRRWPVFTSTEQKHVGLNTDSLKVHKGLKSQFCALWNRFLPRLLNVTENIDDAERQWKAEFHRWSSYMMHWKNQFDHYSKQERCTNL

Consider `Oc1ccc2c(c1)CCc1cc(O)cc(O)c1-2` [2,4,7-Trihydroxy-9,10-dihydrophenanthrene], for which, in assay [1], the “AChE EF (enrichment factor)” value worked out at 1.32%. Moreover, the “iNOS EF (enrichment factor)” value in [2] was found to be 0.91%.
As for `Cc1cc(C(C)(C)C)c(O)c(C(C)(C)C)c1` [BHT, butylated hydroxytoluene, reference compound], the EC50 in assay [3] came to 90.8 ± 5.65 µM; in assay [4], 53.7 ± 1.48 µM. In [3] (solvent extracts), the “SC50 DPPH” value was found to be 36.64 ± 2.22 µg/mL. Moreover, in assay [4] (solvent extracts), the “SC50 ABTS” value came out at 46.83 ± 0.44 µg/mL. Besides, the results for the “TE FRAP” value in assay [5] (isolated components) and in assay [5] (solvent extracts) were 4355.95 ± 99.23 mM/g and 4296.98 ± 48.40 mM/g, respectively.
As to `COc1cc(O)cc(CCc2cccc(O)c2)c1` [Batatasin III (3), batatasin III], the EC50 is > 400 µM in [3], 30.1 ± 1.7 µM in assay [4] and > 400 µM in assay [6]. Further, the “TE FRAP” value in [5] (isolated components) is 559.67 ± 51.49 ^c mM/g; in [5] (isolated components, listed as batatasin III), 559.67 ± 51.49 mM/g. Further, the IC50 – broadly, the concentration that inhibits the measured activity by half – against α-glucosidase was 723 ± 53.5 µM; in [7] (isolated compounds), 258 ± 18.5 µM; in assay [8] (isolated components), 51.3 ± 5.51 µM. Besides, in assay [1], the “AChE EF (enrichment factor)” value worked out at 31.87%. Moreover, the “iNOS EF (enrichment factor)” value in assay [2] is on record as 27.18%.
`O=C(/C=C/c1ccc(O)c(O)c1)O[C@@H]1C[C@](O)(C(=O)O)C[C@@H](O)[C@H]1O` [Chlorogenic acid, chlorogenic acid, reference compound]: the IC50 in assay [7] (isolated compounds) is 236 ± 15.9 µM; in [7] (solvent extracts) it was 214 µM.
In the case of `COc1ccc2c(c1)CCc1cc(O)cc(OC)c1-2` [Coelonin], the “AChE EF (enrichment factor)” value in assay [1] is recorded as 2.00%. Also, the “iNOS EF (enrichment factor)” value in assay [2] stood at 5.09%.
For the compound `O=c1cc(-c2ccc(O)c(O)c2)oc2cc(O[C@@H]3O[C@H](CO)[C@@H](O)[C@H](O)[C@H]3O)cc(O)c12` [Cynaroside, cynaroside, reference compound], the EC50 in assay [6] is 50.6 ± 2.62 µM. Further, the “SC50 Superoxide” value in assay [6] (solvent extracts) is 112.76 ± 5.84 µg/mL.
Turning to `Oc1ccc(CCc2cc(O)cc(O)c2)cc1` [Dihydroresveratrol], in [1], the “AChE EF (enrichment factor)” value is on record as 0.08%. The “iNOS EF (enrichment factor)” value in [2] is 0.62%.
The matching figures for `COc1ccc(CCc2cc(OC)c(OC)c(OC)c2)cc1O` [Erianin]: 0.23% and 1.72%.
For the compound `COc1cc(O)cc(CCc2ccc(O)c(OC)c2)c1` [Gigantol (1), gigantol], the EC50 in [3] was 35.2 ± 1.34 µM; in [4] it was 12.2 ± 0.54 µM; in assay [6], > 400 µM. Further, the “TE FRAP” value in assay [5] (isolated components) is listed as 1483.20 ± 63.49 ^c mM/g; in assay [5] (isolated components, listed as gigantol) it was 1483.20 ± 63.49 mM/g. Besides, the half-inhibitory concentration (IC50) is 470 ± 28.5 µM at α-glucosidase, 176 ± 19.1 µM in assay [7] (isolated compounds) and 63.7 ± 11.4 µM in assay [8] (isolated components). In [1], the “AChE EF (enrichment factor)” value is 54.60%. For the same compound, the “iNOS EF (enrichment factor)” value in assay [2] was 44.84%.
For the compound `COc1c(O)cc2ccc3cc(O)ccc3c2c1OC` [Nudol], the “AChE EF (enrichment factor)” value in assay [1] was determined as 29.56%. In addition, the “iNOS EF (enrichment factor)” value in [2] came to 24.39%.
In the case of `O=c1c(O)c(-c2ccc(O)c(O)c2)oc2cc(O)cc(O)c12` [Quercetin, quercetin, reference compound], the figures for the IC50 in assay [8] (isolated components) and in [8] (solvent extracts) were 23.1 ± 1.43 µM and 6.98 ± 0.43 mg/L, respectively.
Turning to `COc1cc(CCc2cc(O)cc(O)c2)ccc1O` [Tristin], the “AChE EF (enrichment factor)” value in assay [1] was found to be 5.83%. Moreover, the “iNOS EF (enrichment factor)” value in [2] was found to be 0.95%.
